Experimental data: patent publication US20100255580A1, “Differentiation of Human Embryonic Stem Cells” (LIFESCCAN, INC., priority 2007, published 2010)

Tested on: H9 embryonic stem cells
Assay type: cell-based, human
Details: low serum, on MATRIGEL
Procedure: Controls for each group included cells plated on […]-coated dishes and cultured in MEF-conditioned medium or cells plated on MEFs and cultured in ES medium. All groups contained three biological replicates and each biological replicate was repeated on two separate gene chips.
Sample preparation, hybridization, and image analysis were performed according to the Affymetrix Human Genome U133 Plus 2.0 Array. Following normalization and a log transformation, data analysis was performed using OmniViz® software (MA) and […] (VizXLabs, WA). Significant differences in gene expression between the samples were evaluated using analysis of variance and an F-test with adjusted P-value (Benjamini and
Hochberg correction) of ≦b 0.05. Only genes with a present call in at least one group were included in the analysis.

Substance: Activin A: a member of the TGFβ superfamily; R&D Systems; Group 2 = Activin A (100 ng/ml)
- log intensity, H2A histone family, member X: 1.371
- log intensity, H. sapiens skeletal embryonic myosin light chain 1 (MLC1): 0.6901
- log intensity, HT016 mRNA: 0.2188
- log intensity, Homo sapiens nudix (nucleoside diphosphate linked moiety X)-type motif (r1198): 3.915
- log intensity, Human DNA sequence from clone RP4-781L3 on chromosome 1p34.3-36.11: 2.828
- log intensity, Human DNA sequence from clone RP11-446H13 on chromosome 10: −0.8894
- log intensity, Human MLC1emb gene for embryonic myosin alkaline light chain, promoter and exon 1: 1.3489
- log intensity, Human clone 23826 mRNA sequence: 1.808
- log intensity, Human embryonic myosin alkali light chain (MLC1): 1.942
- log intensity, Human extracellular matrix protein 1 (ECM1): 0.6348
- log intensity, Human mRNA for pro-alpha 1 (II) collagen 3end C-term.: 0.8598
- log intensity, Human rho GDI mRNA: 0.01936
- log intensity, KIAA0127 gene product (KIAA0127): 2.052
- log intensity, KIAA0346 protein: −1.347
- log intensity, KIAA0418 gene product: −0.6776
- log intensity, KIAA0761 protein: −2.096
- log intensity, KIAA0882 protein: 2.056
- log intensity, KIAA0918 protein: −1.397
- log intensity, KIAA1415 protein: 0.1859
- log intensity, KIAA1511 protein: 0.6203
- log intensity, Kruppel-like factor 8 (KLF8): 0.3261
- log intensity, LIM homeobox protein 1 (LHX1): −0.7717
- log intensity, LYST-interacting protein LIP3: −0.6821
- log intensity, MAD (mothers against decapentaplegic, Drosophila) homolog 6 (MADH6): 0.9175
- log intensity, MYC-associated zinc finger protein (purine-binding transcription factor) (MAZ): −0.05557
- log intensity, Novel human mRNA from chromosome 22: −0.5337
- log intensity, PNAS-145 mRNA: 2.85
- log intensity, PRO1957 mRNA: 1.689
- log intensity, PTPRF interacting protein, binding protein 2 (liprin beta 2): −1.92
- log intensity, Pig10 (PIG10): 0.1295
- log intensity, SG2NA beta isoform: −1.156
- log intensity, Similar to B9 protein, clone MGC: 11339: 1.439
- log intensity, Similar to RIKEN cDNA C330013D18 gene, clone MGC: 11226: 0.08747
- log intensity, Similar to lipase protein, clone MGC: 2843: −1.161
- log intensity, X75208 H. sapiens HEK2 mRNA for protein tyrosine kinase receptor: −1.367
- log intensity, adaptor-related protein complex 3, beta 2 subunit (AP3B2): −0.2083
- log intensity, adenylate cyclase 8 (brain) (ADCY8): −1.3408
- log intensity, alpha 2,8-sialyltransferase: −1.105
- log intensity, aminolevulinate, delta-, dehydratase, clone MGC: 5057: 1.3099
- log intensity, annexin A6 (ANXA6), transcript variant 1: 3.89
- log intensity, apolipoprotein A-II (APOA2): −1.102
- log intensity, apolipoprotein C-I (APOC1): 3.25
- log intensity, arrestin, beta 1 (ARRB1), transcript variant 1: −0.1588
- log intensity, bHLH factor Hes4 (LOC57801): 0.4782
- log intensity, beta3GalNAcT-1 mRNA for globoside synthase, clone: type 2: −2.733
- log intensity, bone morphogenetic protein 2 (BMP2): 2.045
- log intensity, bone morphogenetic protein 5 (BMP5): −0.6099
- log intensity, bromodomain and PHD finger containing, 3: −2.8472
- log intensity, c-mer proto-oncogene tyrosine kinase (MERTK): 1.79
- log intensity, cDNA FLJ11390 fis, clone HEMBA1000561: −1.129
- log intensity, cDNA FLJ13221 fis, clone NT2RP4002075: 0.2828
- log intensity, cDNA FLJ13392 fis, clone PLACE1001280: −1.902
- log intensity, cDNA FLJ13810 fis, clone THYRO1000279: −2.924
- log intensity, cDNA FLJ30081 fis, clone BGGI12000693: 0.6779
- log intensity, cDNA FLJ34035 fis, clone FCBBF2004788: −3.58
- log intensity, cDNA FLJ36116 fis, clone TESTI2022338: 3.026
- log intensity, cDNA: FLJ22731 fis, clone HSI15841: −2.309
- log intensity, cDNA: FLJ22808 fis, clone KAIA2925: −0.3674
- log intensity, cDNA: FLJ23067 fis, clone LNG04993: −2.256
- log intensity, calmegin (CLGN): −0.1043
- log intensity, cardiac ankyrin repeat protein (CARP): −0.002291
- log intensity, cartilage linking protein 1: 0.8794
- log intensity, caspase-like apoptosis regulatory protein 2 (clarp): 0.4342
- log intensity, chemokine receptor CXCR4 mRNA: 2.306
- log intensity, cleft lip and palate associated transmembrane protein 1, clone MGC: 10593: 1.316
- log intensity, clone FLC1492 PRO3121 mRNA: −0.3
- log intensity, clone HB-2 mRNA sequence: −0.5039
- log intensity, clone IMAGE: 3509274, mRNA, partial cds: 0.4937
- log intensity, clone IMAGE: 4047715, mRNA: −2.508
- log intensity, clone MGC: 14801: 2.039
- log intensity, clone MGC: 24252 IMAGE: 3932604: −1.533
- log intensity, clone TUA8 Cri-du-chat region mRNA: 0.09218
- log intensity, collagen, type V, alpha 1: 1.5875
- log intensity, complement component 5 (C5): −1.896
- log intensity, core histone macroH2A2.2 (MACROH2A2): 1.673
- log intensity, cystatin C (amyloid angiopathy and cerebral hemorrhage) (CST3): 2.086
- log intensity, deiodinase, iodothyronine, type III (DIO3): −0.1369
- log intensity, dickkopf (Xenopus laevis) homolog 1 (DKK1): 0.9815
- log intensity, dual specificity phosphatase 4, clone MGC: 3713: 2.115
- log intensity, dynein, axonemal, light polypeptide 4 (DNAL4): 0.4583
- log intensity, dystrophin (muscular dystrophy, Duchenne and Becker types) (DMD), transcript variant Dp427p2: 1.404
- log intensity, ectodermal dysplasia 1, anhidrotic (ED1): 0.7966
- log intensity, elongation of very long chain fatty acids (FEN1Elo2, SUR4Elo3, yeast)-like 2 (ELOVL2): 0.09998
- log intensity, endothelin receptor type A (EDNRA), mRNA: 0.763
- log intensity, endothelin receptor type A (r1027): −1.834
- log intensity, enolase 2, (gamma, neuronal) (ENO2): 2.606
- log intensity, eomesodermin (Xenopus laevis) homolog (EOMES): 2.659
- log intensity, erythrocyte membrane protein band 4.9 (dematin) (EPB49): −0.3066
- log intensity, fasciculation and elongation protein zeta 1 (zygin I) (FEZ1), transcript variant 1: 1.864
- log intensity, forkhead box F2 (FOXF2): −1.545
- log intensity, gelsolin (amyloidosis, Finnish type) (GSN): 1.6198
- log intensity, glucose-6-phosphate transporter (G6PT) gene, G6PT-Dt allele: −0.1935
- log intensity, glutathione S-transferase A2 (GSTA2): −3.106
- log intensity, glycoprotein M6A: 0.2744
- log intensity, guanylate cyclase activator 1B (retina) (GUCA1B): −0.7142
- log intensity, heparan sulfate proteoglycan 2 (perlecan): −2.533
- log intensity, hexabrachion (tenascin C, cytotactin) (HXB): 3.969
- log intensity, high mobility group protein-R: 1.047
- log intensity, hypothetical protein BC017868 (LOC159091): −0.2902
- log intensity, hypothetical protein DKFZp434F0318: −1.115
- log intensity, hypothetical protein DKFZp434F2322: 0.07058
- log intensity, hypothetical protein DKFZp564B052: 1.478
- log intensity, hypothetical protein FLJ10312: 1.595
- log intensity, hypothetical protein FLJ11155: −3.346
- log intensity, hypothetical protein FLJ11560: −0.04411
- log intensity, hypothetical protein FLJ12538 similar to ras-related protein RAB17: 1.706
- log intensity, hypothetical protein FLJ12666 (r758): 0.2158
- log intensity, hypothetical protein FLJ12666 (r998): 2.341
- log intensity, hypothetical protein FLJ12838: 1.491
- log intensity, hypothetical protein FLJ21195 similar to protein related to DAC and cerberus: −1.385
- log intensity, hypothetical protein FLJ22471: 0.9038
- log intensity, hypothetical protein FLJ23091: −0.7609
- log intensity, hypothetical protein FLJ23514: 0.5646
- log intensity, hypothetical protein FLJ32835: −0.5956
- log intensity, hypothetical protein MGC2865, clone MGC: 20246: −2.431
- log intensity, insulin-like growth factor binding protein 6 (IGFBP6): 2.6126
- log intensity, keratin 19 (KRT19): 3.806
- log intensity, kidney-specific membrane protein NX-17: 1.919
- log intensity, lipase mRNA: −2.2131
- log intensity, lymphocyte antigen 6 complex, locus E (LY6E): 0.8664
- log intensity, mRNA for KIAA0876 protein: −0.432
- log intensity, mRNA for KIAA1161 protein: 0.7818
- log intensity, mRNA for MSX-2: 0.4072
- log intensity, mRNA for protein-tyrosine kinase: 0.161
- log intensity, mRNA; cDNA DKFZp434E082: 1.364
- log intensity, mRNA; cDNA DKFZp434K0621: 0.5814
- log intensity, mRNA; cDNA DKFZp434P228: 1.768
- log intensity, mRNA; cDNA DKFZp547H236: 1.372
- log intensity, mRNA; cDNA DKFZp564K1672: 4.494
- log intensity, mRNA; cDNA DKFZp586G2120: −1.809
- log intensity, mRNA; cDNA DKFZp586L0120: −2.726
- log intensity, mRNA; cDNA DKFZp762H185: 2.837
- log intensity, mandaselin long form: −0.1481
- log intensity, matrix metalloproteinase 15 (membrane-inserted) (MMP15): −0.2985
- log intensity, microseminoprotein, beta-(MSMB): −2.379
- log intensity, mitogen-activated protein kinase 10 (MAPK10): 0.648
- log intensity, nuclear factor of kappa light polypeptide gene enhancer in B-cells inhibitor, alpha: 2.915
- log intensity, nuclear receptor subfamily 0, group B, member 1 (NR0B1) (r534): −1.928
- log intensity, nuclear receptor subfamily 0, group B, member 1 (NR0B1) (r1079): −0.2138
